# Experimental data: US20220370553A1, “PREBIOTIC-INDUCED ANTI-TUMOR IMMUNITY” (Sanford Burnham Prebys Medical Discovery Institute, priority 2019, published 2022)
# Tests used:
# [1] = test system: fecal microbiota; test: 16S sequencing of fecal microbiota, MC-38 colon cancer model; format: in vivo, C57BL/6 mice
# Experimental: (§1) Bacterial DNA extraction and 16S library preparation. […] Mouse fecal pellets were frozen on dry ice, and stored at −80° C. Bacterial DNA was extracted using the QIAmp Fast DNA Stool Mini Kit (Qiagen). To ensure efficient cell lysis, a 5-min bead-beating step using a Mini-Beadbeater-16 was included (Biospec Products, OK, USA). Library preparation for the Illumina MiSeq platform was performed by amplification of the V3-V4 region of the bacterial 16S ribosomal DNA gene using
# (§2) C. Adapter and barcode sequences for dual indices were used as described by Illumina. PCR clean up steps were performed with QIAquick 96-PCR Clean up kit (Qiagen, Germany), and library quantification was performed using a KAPA Library Quantification Kit for Illumina platforms (KAPA Biosystems, MA, USA). An Experion Automated Gel Electrophoresis System (Bio-Rad, CA, USA) was used to measure the DNA concentration and purity of the pooled libraries. The 16S libraries were sequenced at Novagene (Beijing, China) and the SBP sequencing Core.
# 16S sequencing data processing. The original FASTQ files from Illumina 250 basepair paired-end sequencing of the samples were processed using a novel 16S amplicon sequencing pipeline HiMap (http://github.com/taolonglab/himap; BioRxiv 565572). The output of HiMap is Operational Strain Unit (OSU) which contains one or more bacterial strains that best match the 16S sequence and cannot be further distinguished. The percentage similarity between the 16S sequence and the aligned region of 16S rRNA genes of the strains in the OSU is indicated. OSUs mapped to the same strains are grouped together (adding read counts) if percentage similarities are within 3%. Read counts are converted into relative abundance as described in HiMap. Log 10-transformed relative abundances were used for comparisons between samples under different experimental conditions.
# The effects of inulin on the microbiota were evaluated in a colon cancer model. […] MC-38 mouse colorectal cancer cells (1×10^6) were inoculated, and diets were continued after inoculation.
# (§3) P-values were calculated using paired one-tail Wilcoxon rank sum test.
# as §3
# [2] = test system: fecal microbiota; test: 16S rRNA amplicon sequencing of fecal microbiota, YUMM1.5 melanoma model; format: in vivo, C57BL/6 mice; conditions: YUMM1.5 model, TABLE 3
# Experimental: as §1, §2
# 16S sequencing data processing. […] OSUs mapped to the same strains are grouped together (adding read counts) if percentage similarities are within 3%. Read counts are converted into relative abundance as described in HiMap. […]
# [3] = test system: N-Ras mutant melanoma tumor cells (MaNRAS1); test: Growth of N-Ras mutant melanoma tumors with prebiotics with or without MEKi; format: in vivo, C57BL/6 mice; conditions: in the absence of MEKi; mucin 3% in water or inulin 15% in chow
# Experimental: FIG. 7A C57BL/6 mice were injected (s.c.) with NRAS^Q61K mouse melanoma cells (1×10^6) (n=10). The mice were administered with either a control diet alone, or one supplemented with mucin (3%) in drinking water or inulin (15%) in chow starting 14 days prior to tumor inoculation. When tumors reached a volume of 10-20 mm^2, mice were treated with MEKi (PD325901) administered by gavage (10 mg/kg, daily), alone or in combination with inulin or mucin, as indicated. Tumor volume was assessed every 4 days. […] Data are representative of two independent experiments. Graphs show the mean±s.e.m. *P<0.05, **P<0.005, ***P<0.001, ****P<0.0001 by two-way ANOVA with Tukey's correction (A) or one-way ANOVA with Tukey's correction (B-D).
# Animals and tumor models. […] Male 6-8-week-old mice were used for all experiments. […] All mice were fed an autoclaved chow diet ad libitum (LabDiet 5K67, Purina Foods). […] Mouse selection for experiments was not formally randomized or blinded. For tumor growth experiments, mice were injected subcutaneously (s.c.) with 1×10^6 tumor cells. Tumor size was measured twice a week for calculation of tumor volume. Tumors were weighed at the time of excision.
# Mucin and inulin treatment. For mucin treatment, C57BL/6 mice were subjected to control or water supplemented with 3% mucin (Lee Biosolutions) prior to (14 days) and during tumor inoculation. Water was changed every other day. For inulin treatment, mice were received a diet (TD. 94048, AIN-93M, Purified Diet, ENVIGO) enriched with long-chain inulin by substituting all of sucrose and 5% of corn starch in the control diet or a modified diet (TD. 160256, Modified AIN-93M, Diet w 15% inulin, ENVIGO) prior to (14 days) and during tumor inoculation. Diets were changed 2 times a week.
# Experiments were conducted to determine whether prebiotics impacted the effectiveness of MEK inhibitor (MEKi) treatment on tumor growth control and treatment resistance.
# [4] = test system: intestinal epithelial cells; test: qRT-PCR of inflammatory mediators in intestinal epithelial cells in vivo; parameters: species or system C57BL/6 mice; conditions: mucin 3% in drinking water, naïve mice, 2 weeks
# Description: FIG. 15 illustrates effects of mucin and inulin on expression of inflammatory mediators by intestinal epithelial cells in vivo. qRT-PCR data are shown for mRNA levels of the indicated inflammatory mediators in intestinal epithelial cells from mucin or inulin-treated mice (n=4). Data are representative of two independent experiments. Graphs show the mean s.e.m. *P<0.05, **P<0.005, one-way ANOVA with Tukey's correction.
# Isolation of intestinal epithelial cells. A 10 cm section of mouse small intestine was opened longitudinally, minced, washed in 150 mM NaCl containing 1 mM DTT, and then resuspended in dissociation buffer (130 mM NaCl, 10 mM EDTA, 10 mM Hepes [pH 7.4], 10% FCS, and 1 mM DTT). The sections were incubated at 37° C. for 30 min with vigorous shaking to release the epithelial cells from the lamina propria. The epithelial cell suspension was then carefully aspirated, centrifuged, and washed in ice-cold PBS.
# The effect of mucin and inulin on intestinal epithelial cells was evaluated in vivo. To this end, mucin (3% in drinking water) or inulin (15% in chow) were administered to naïve C57BL/6 mice for 2 weeks. Intestinal epithelial cells were isolated from small intestine and were assessed for the level of select cytokines and chemokines that are implicated in the activation of the immune response and anti-tumor immunity.
# [5] = test system: Yumm1.5 tumors; test: Growth of Yumm1.5 melanoma tumors in prebiotic-fed mice; format: in vivo, C57BL/6 mice; conditions: mucin 3% in drinking water or inulin 15% w/w chow from 2 weeks prior to inoculation of 1×10^6 Yumm1.5 cells
# Description: FIG. 2B, Quantification of tumor-infiltrating effector (CD44hi) CD4+, CD8+ and CD45+ T cells from mice treated as in FIG. 2A (n=10). FIG. 2C, Quantification of tumor-infiltrating, IFN-g-producing CD4+ T cells from mice treated as in FIG. 2A (n=10). FIG. 2D, Quantification of tumor-infiltrating total DCs and subsets in mice treated as in FIG. 2A (n=10). FIG. 2E, MFI of MHC class I and MHC class II on DCs from the tumors of mice treated as in FIG. 2A (n=10). […] Graphs show the mean s.e.m. *P<0.05, **P<0.005, ***P<0.001,****P<0.0001 by two-way ANOVA with Tukey's correction (A) and by one-way ANOVA with Tukey's correction (B-E).
# [6] = B: 14 days after mucin feeding, A (prior to feeding) 0.001, p A vs B 0.001
# [7] = C: 20 days post-tumor cell inoculation with mucin feeding
# [8] = C: 20 days post-tumor cell inoculation with mucin feeding, p B vs C 0.006
# [9] = C: 20 days post-tumor cell inoculation with mucin feeding, p B vs C 0.007
# [10] = C: 20 days post-tumor cell inoculation with mucin feeding, p B vs C 0.011
substance,measurement,setting,value
mucin,Abundance of phylotype group Clostridium cellulolyticum (93),[1]; [6],0.055
same,Abundance of phylotype group Dubosiella newyorkensis (93),[1]; [6],0.044
same,Abundance of phylotype group Staphylococcus saprophyticus (100),"[1]; B: 14 days after mucin feeding, A (prior to feeding) 0.001, p A vs B 0.005",0.057
same,Abundance of phylotype group Corynebacterium ammoniagenes (99),"[1]; B: 14 days after mucin feeding, A (prior to feeding) 0.001, p A vs B 0.006",0.054
same,Abundance of phylotype group Olsenella profusa (92),"[1]; B: 14 days after mucin feeding, A (prior to feeding) 0.001, p A vs B 0.023",0.118
same,Abundance of phylotype group Christensenella timonensis (88) / Anaerotruncus colihominis (88),"[1]; B: 14 days after mucin feeding, A (prior to feeding) 0.001, p A vs B 0.025",0.010
same,Abundance of phylotype group Gracilibacter thermotolerans (89) / Christensenella massiliensis (88),"[1]; B: 14 days after mucin feeding, A (prior to feeding) 0.001, p A vs B 0.036",0.006
same,Abundance of phylotype group Bifidobacterium pseudolongum (90),"[1]; B: 14 days after mucin feeding, A (prior to feeding) 0.001, p A vs B 0.049",0.025
same,Abundance of phylotype group Ruminococcus lactaris (97) / Clostridium oroticum (97),"[1]; B: 14 days after mucin feeding, A (prior to feeding) 0.004, p A vs B 0.0005",0.062
same,Abundance of phylotype group Clostridium hylemonae (98) / Muricomes intestini (98) / Clostridium oroticum (98) XIVa,"[1]; B: 14 days after mucin feeding, A (prior to feeding) 0.005, p A vs B 0.040",0.029
same,Abundance of phylotype group Desulfovibrio desulfuricans (95),"[1]; B: 14 days after mucin feeding, A (prior to feeding) 0.008, p A vs B 0.035",0.338
same,Abundance of phylotype group Clostridium cellulovorans (89) / Christensenella massiliensis (88),"[1]; B: 14 days after mucin feeding, A (prior to feeding) 0.009, p A vs B 0.048",0.045
same,Abundance of phylotype group Eubacterium dolichum (93),"[1]; B: 14 days after mucin feeding, A (prior to feeding) 0.011, p A vs B 0.025",0.106
same,Abundance of phylotype group Clostridium viride (96) / Intestinimonas butyriciproducens (96) / Pseudoflavonifractor capillosus (95),"[1]; B: 14 days after mucin feeding, A (prior to feeding) 0.013, p A vs B 0.001",0.062
same,Abundance of phylotype group Roseburia faecis (95),"[1]; B: 14 days after mucin feeding, A (prior to feeding) 0.013, p A vs B 0.009",0.124
same,Abundance of phylotype group Ihubacter massiliensis (98) / E. timonensis (96),"[1]; B: 14 days after mucin feeding, A (prior to feeding) 0.014, p A vs B 0.002",0.146
same,Abundance of phylotype group Clostridium xylanolyticum (98) / C. aerotolerans (97),"[1]; B: 14 days after mucin feeding, A (prior to feeding) 0.014, p A vs B 0.008",0.088
same,Abundance of phylotype group Harryflintia acetispora (95) / Anaerotruncus colihominis (93),"[1]; B: 14 days after mucin feeding, A (prior to feeding) 0.017, p A vs B 0.043",0.040
same,Abundance of phylotype group Staphylococcus lentus (100),"[1]; B: 14 days after mucin feeding, A (prior to feeding) 0.024, p A vs B 0.030",0.349
same,Abundance of phylotype group Roseburia intestinalis (95) / Ruminococcus faecis (95) / E. rectale (95),"[1]; B: 14 days after mucin feeding, A (prior to feeding) 0.029, p A vs B 0.003",0.113
same,Abundance of phylotype group Eubacterium dolichum (92),"[1]; B: 14 days after mucin feeding, A (prior to feeding) 0.045, p A vs B 0.00003",0.291
same,Abundance of phylotype group Murimonas intestini (97) / Clostridium celerecrescens (96) XIVa,"[1]; B: 14 days after mucin feeding, A (prior to feeding) 0.104, p A vs B 0.009",0.300
same,Abundance of phylotype group Anaerotaenia torta (96) / C. xylanolyticum (95),"[1]; B: 14 days after mucin feeding, A (prior to feeding) 0.168, p A vs B 1 × 10^−6",0.421
same,Abundance of phylotype group Olsenella profusa (95),"[1]; B: 14 days after mucin feeding, A (prior to feeding) 0.180, p A vs B 0.004",4.883
same,Abundance of phylotype group Clostridium cocleatum (99),"[1]; B: 14 days after mucin feeding, A (prior to feeding) 0.253, p A vs B 0.011",7.822
same,Abundance of phylotype group Muribaculum intesinale (92),"[1]; B: 14 days after mucin feeding, A (prior to feeding) 6.008, p A vs B 4 × 10^−7",17.058
same,Abundance of phylotype group Bifidobacterium pseudolongum (90),[1]; [7],0.006
same,Abundance of phylotype group Clostridium cellulolyticum (93),[1]; [7],0.055
same,Abundance of phylotype group Clostridium cellulovorans (89) / Christensenella massiliensis (88),[1]; [7],0.038
same,Abundance of phylotype group Clostridium cocleatum (99),[1]; [7],3.099
same,Abundance of phylotype group Clostridium hylemonae (98) / Muricomes intestini (98) / Clostridium oroticum (98) XIVa,[1]; [7],0.030
same,Abundance of phylotype group Desulfovibrio desulfuricans (95),[1]; [7],0.533
same,Abundance of phylotype group Eubacterium dolichum (92),[1]; [7],0.462
same,Abundance of phylotype group Eubacterium dolichum (93),[1]; [7],0.279
same,Abundance of phylotype group Gracilibacter thermotolerans (89) / Christensenella massiliensis (88),[1]; [7],0.020
same,Abundance of phylotype group Murimonas intestini (97) / Clostridium celerecrescens (96) XIVa,[1]; [7],0.462
same,Abundance of phylotype group Olsenella profusa (92),[1]; [7],0.068
same,Abundance of phylotype group Olsenella profusa (95),[1]; [7],3.256
same,Abundance of phylotype group Ruminococcus lactaris (97) / Clostridium oroticum (97),[1]; [7],0.060
same,Abundance of phylotype group Dubosiella newyorkensis (93),"[1]; C: 20 days post-tumor cell inoculation with mucin feeding, p B vs C 0.001",0.005
same,Abundance of phylotype group Corynebacterium ammoniagenes (99),[1]; [8],0.002
same,Abundance of phylotype group Harryflintia acetispora (95) / Anaerotruncus colihominis (93),[1]; [8],0.172
same,Abundance of phylotype group Clostridium viride (96) / Intestinimonas butyriciproducens (96) / Pseudoflavonifractor capillosus (95),[1]; [9],0.113
same,Abundance of phylotype group Muribaculum intesinale (92),[1]; [9],11.857
same,Abundance of phylotype group Roseburia intestinalis (95) / Ruminococcus faecis (95) / E. rectale (95),[1]; [9],0.407
same,Abundance of phylotype group Roseburia faecis (95),[1]; [10],0.555
same,Abundance of phylotype group Staphylococcus saprophyticus (100),[1]; [10],0.006
same,Abundance of phylotype group Christensenella timonensis (88) / Anaerotruncus colihominis (88),"[1]; C: 20 days post-tumor cell inoculation with mucin feeding, p B vs C 0.028",0.027
same,Abundance of phylotype group Staphylococcus lentus (100),"[1]; C: 20 days post-tumor cell inoculation with mucin feeding, p B vs C 0.034",0.033
same,taxa enriched,[2],predominantly enriched taxa with similarity to members of Clostridium cluster XIVa
same,control of N-Ras mutant tumors,[3],not
same,TNF-α mRNA level in intestinal epithelial cells,[4],elevated
same,melanoma tumor growth,[5],attenuated
